The text below walks through data of patent US11486880B2, “Method of measuring harshness of a surfactant” (Conopeo, Inc., priority 2018, dated 2022).

This data set relates to Zein protein. Description: Harshness of surfactant by dye release from solid Zein protein-Coomassie Blue R dye complex (CIE L*a*b colour change). The note with it: 10 wt % surfactant dilution; disc of protein-dye complex soaked 15 minutes; decrease in b* between first and second colour measurement; lower b = harsher; three replicates. Further details: species or system corn. Here is the method:
Zein powder (10 wt %) and Coomassie Blue R dye (0.1%) were added to a glass jar, and made up to 100 wt % with 90:10 aqueous ethanol (90 ethanol: 10 water). The mixture was left to disperse with stirring for 12 hours to produce protein-dye complex solution.
2 g of the protein-dye complex solution was added to four petri dishes and dried overnight under ambient conditions. The dried discs of protein-dye complex were then removed from the petri dishes and stored until required.
Dilutions (10 wt %) of four surfactants were prepared and a first colour measurement of each dilution was taken using CIEL*a*b on a Konica Minolta spectrometer.
A disc of protein-dye complex was added to each surfactant dilution, and soaked for 15 minutes. A second colour measurement was obtained of the resulting solutions. The decrease in b* value between the first and second colour measurement indicated the increase in blue colour. The lower the b value the ‘bluer’ the sample and the harsher the formulation. Three samples from each surfactant solution were measured as replicates.

In the case of `CCCCCCCCCCO[C@@H]1O[C@H](CO)[C@@H](O)[C@H](O)[C@H]1O` [Decyl Glucoside], the “Average Δb*” value is −11.2625.

For the compound `CCCCCCCCCCCCOS(=O)(=O)[O-].[Na+]` [SDS], the “Average Δb*” value was −49.465.
